Test results from patent US20240140938A1, “PREPARATION OF TETRAHYDROINDAZOLE DERIVATIVES AS NOVEL DIACYLGLYCERIDE O-ACYLTRANSFERASE 2 INHIBITORS” (MERCK SHARP & DOHME LLC, priority 2020, published 2024).

Molecular target: human DGAT2 (hDGAT2) (Homo sapiens (Human), UniProt Q96PD7)
Assay: DGAT2 Enzymatic Activity Assay
Type: biochemical
Details: hDGAT2 Sf-9 membrane prep; 13C18-triolein product by LC/MS/MS; 25 μM diolein, 5 μM 13C oleoyl-CoA
Protocol: Sf-9 insect cells were maintained in Grace's insect cell culture medium with 10% heated-inactivated fetal bovine serum, 1% Pluronic F-68 and 0.14 μg/ml Kanamycine sulfate at 27° C. in a shaker incubator. After infection with untagged baculovirus expressing human DGAT2 (hDGAT2) at multiplicity of infection (MOI) 3 for 48 hours, cells were harvested. Cell pellets were suspended in buffer containing 10 mM Tris-HCl pH 7.5, 1 mM EDTA, 250 mM sucrose and Complete Protease Inhibitor Cocktail (Sigma Aldrich), and sonicated on ice. Cell debris were removed by centrifugation at 2000×g for 15 minutes. Membrane fractions were isolated by ultracentrifugation (100,000×g), resuspended in the same buffer, and frozen (−80° C.) for later use. The protein concentration was determined with the Pierce™ BCA Protein Assay Kit (Thermo Fisher Scientific).
LC/MS/MS analyses were performed using Thermal Fisher's LX4-TSQ Vantage system. This system consists of an Agilent binary high-performance liquid chromatography (HPLC) pump and a TSQ Vantage triple quadrupole MS/MS instrument. For each sample, 2 μL samples from the top organic layer of in-plate liquid-liquid extraction were injected onto a Thermo Betabasic C4 column (2.1 mm×20 mm, 5 μm particle size). The samples were then eluted using the following conditions; mobile phase: Isopropanol: acetonitrile/10 mM ammonium formate=50/35/15 (v/v/v), flow rate: 0.8 mL/min, temperature: 25° C. Data was acquired in positive mode using a heated electrospray ionization (HESI) interface. […] The peak area was integrated by Xcalibur Quan software. The ratio between the ^13C18triolein generated in the reaction and spiked in internal standard ^13C21-triolein was used to generate percentage inhibition and IC50 values. Compound percentage inhibition was calculated by the following formula: Inhibition %=1−[(compound response−low control)/(high control−low control)]×100%.
DGAT2 activity was determined by measuring the amount of enzymatic product ^13C18-triolein (^13C-1,2,3-Tri(cis-9-octadecenoyl)glycerol) using the membrane prep mentioned above. The assay was carried out in ABgene 384-well assay plates in a final volume of 25 μL at rt.

Sequence of human DGAT2 (hDGAT2) (Q96PD7 whole entry): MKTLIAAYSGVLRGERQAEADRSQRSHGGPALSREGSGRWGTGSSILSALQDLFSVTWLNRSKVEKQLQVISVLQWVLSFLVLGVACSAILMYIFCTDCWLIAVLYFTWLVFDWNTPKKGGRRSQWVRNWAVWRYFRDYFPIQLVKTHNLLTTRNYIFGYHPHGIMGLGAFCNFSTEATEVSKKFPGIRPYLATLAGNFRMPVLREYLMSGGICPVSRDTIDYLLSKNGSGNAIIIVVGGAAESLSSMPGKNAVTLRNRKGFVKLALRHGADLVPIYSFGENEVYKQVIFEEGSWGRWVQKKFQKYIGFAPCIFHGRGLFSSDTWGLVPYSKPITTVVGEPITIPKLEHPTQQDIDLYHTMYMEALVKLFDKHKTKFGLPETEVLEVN

Row | IC50 | SMILES
1 | 0.33 nM | CC1(NC(=O)C2COc3c(-c4cccc(OC(F)F)c4)nn(-c4ccc(F)cn4)c3C2)CS(=O)(=O)C1 (racemic) [Example 119, 3-(3-(difluoromethoxy)phenyl)-1-(5-fluoropyridin-2-yl)-N-(3-methyl-1,1-dioxidothietan-3-yl)-1,5,6,7-tetrahydropyrano[3,2-c]pyrazole-6-carboxamide]
2 | 21.5 nM | CC(C)n1nc(-c2cc(OC(F)F)ccc2F)c2c1CC(C(=O)NC1(C)CS(=O)(=O)C1)CO2 (racemic) [Example 121, 3-(5-(difluoromethoxy)-2-fluorophenyl)-1-isopropyl-N-(3-methyl-1,1-dioxidothietan-3-yl)-1,5,6,7-tetrahydropyrano[3,2-c]pyrazole-6-carboxamide]
3 | 56.4 nM | CC(C)n1nc(-c2cccc(OC(F)F)c2)c2c1CC(C(=O)NC1(C)CC(F)(F)C1)CO2 (racemic) [Example 124, N-(3,3-difluoro-1-methylcyclobutyl)-3-(3-(difluoromethoxy)phenyl)-1-isopropyl-1,5,6,7-tetrahydropyrano[3,2-c]pyrazole-6-carboxamide]
4 | > 10000 nM | CC(C)n1nc(-c2cccc(OC(F)F)c2)c2c1CC(C(=O)NC1(C)CS(=O)(=O)C1)OC2 (single isomer, unassigned) [EX-134a, 3-(3-(difluoromethoxy)phenyl)-1-isopropyl-N-(3-methyl-1,1-dioxidothietan-3-yl)-1,4,6,7-tetrahydropyrano[4,3-c]pyrazole-6-carboxamide]
5 | 7610 nM | CC(C)n1nc(-c2cccc(OC(F)F)c2)c2c1CC(C(=O)NC1(C)CS(=O)(=O)C1)OC2 (single isomer, unassigned) [EX-134b, 3-(3-(difluoromethoxy)phenyl)-1-isopropyl-N-(3-methyl-1,1-dioxidothietan-3-yl)-1,4,6,7-tetrahydropyrano[4,3-c]pyrazole-6-carboxamide]
6 | 3900 nM | C[C@]1(NC(=O)[C@H]2CCc3c(-c4ccccc4Cl)nn(-c4ccc(F)cc4)c3C2)CCS(=O)(=O)C1 (single isomer, unassigned) [Example 1a]
7 | 33.7 nM | C[C@]1(NC(=O)[C@@H]2CCc3c(-c4ccccc4Cl)nn(-c4ccc(F)cc4)c3C2)CCS(=O)(=O)C1 (single isomer, unassigned) [Example 1b]
8 | 5 nM | O=C(NC1(CO)CCC(F)(F)C1)[C@@H]1CCc2c(-c3cccc(OC(F)F)c3)nn(-c3ccc(F)cn3)c2C1 (single isomer, unassigned) [Example 8a]
9 | 35 nM | O=C(NC1(CO)CCC(F)(F)C1)[C@@H]1CCc2c(-c3cccc(OC(F)F)c3)nn(-c3ccc(F)cn3)c2C1 (single isomer, unassigned) [Example 8b]
10 | 17.4 nM | N#CC1(NC(=O)[C@@H]2CCc3c(-c4cncc(OC(F)F)c4)nn(-c4ccc(F)cn4)c3C2)CCOC1 (single isomer, unassigned) [Example 15a]
11 | 236 nM | N#CC1(NC(=O)[C@@H]2CCc3c(-c4cncc(OC(F)F)c4)nn(-c4ccc(F)cn4)c3C2)CCOC1 (single isomer, unassigned) [Example 15b]
12 | 90.3 nM | CC(C(F)F)n1nc(-c2cc(OC(F)F)ccc2F)c2c1C[C@H](C(=O)NC1(C)CS(=O)(=O)C1)CC2 (single isomer, unassigned) [Example 48a]
13 | 19.8 nM | CC(C(F)F)n1nc(-c2cc(OC(F)F)ccc2F)c2c1C[C@H](C(=O)NC1(C)CS(=O)(=O)C1)CC2 (single isomer, unassigned) [Example 48b]
14 | 32.1 nM | CC(C(F)F)n1nc(-c2cc(OC(F)F)ccc2F)c2c1C[C@H](C(=O)NC1(C)CCS(=O)(=O)CC1)CC2 (single isomer, unassigned) [Example 49a]
15 | 0.6 nM | CC(C(F)F)n1nc(-c2cc(OC(F)F)ccc2F)c2c1C[C@H](C(=O)NC1(C)CCS(=O)(=O)CC1)CC2 (single isomer, unassigned) [Example 49b]
16 | 162 nM | CCOc1cc(-c2nn(C(C)C(F)(F)F)c3c2CC[C@@H](C(=O)NC2(C)CCS(=O)(=O)CC2)C3)c(F)cn1 (single isomer, unassigned) [Example 53a]
17 | 10.3 nM | CCOc1cc(-c2nn(C(C)C(F)(F)F)c3c2CC[C@@H](C(=O)NC2(C)CCS(=O)(=O)CC2)C3)c(F)cn1 (single isomer, unassigned) [Example 53b]
18 | 23.4 nM | CC(C1CC1)n1nc(-c2cc(OC(F)F)ccc2F)c2c1C[C@H](C(=O)NC1(C)CS(=O)(=O)C1)CC2 (single isomer, unassigned) [Example 58a]
19 | 2.5 nM | CC(C1CC1)n1nc(-c2cc(OC(F)F)ccc2F)c2c1C[C@H](C(=O)NC1(C)CS(=O)(=O)C1)CC2 (single isomer, unassigned) [Example 58b]
20 | 3.9 nM | CC(n1nc(-c2cc(OCC(F)(F)F)ncc2F)c2c1C[C@H](C(=O)NC1(C)CCS(=O)(=O)CC1)CC2)C(C)(C)O (single isomer, unassigned) [Example 107a]

Row | IC50 | SMILES
21 | 5.4 nM | CC(n1nc(-c2cc(OCC(F)(F)F)ncc2F)c2c1C[C@H](C(=O)NC1(C)CCS(=O)(=O)CC1)CC2)C(C)(C)O (single isomer, unassigned) [Example 107b]
22 | 44.1 nM | CCOc1cc(-c2nn(C(C)C(C)(C)O)c3c2CC[C@@H](C(=O)N[C@@]2(C)CCS(=O)(=O)C2)C3)c(F)cn1 (single isomer, unassigned) [Example 108a]
23 | 172 nM | CCOc1cc(-c2nn(C(C)C(C)(C)O)c3c2CC[C@@H](C(=O)N[C@@]2(C)CCS(=O)(=O)C2)C3)c(F)cn1 (single isomer, unassigned) [Example 108b]
24 | 49.5 nM | CCOc1cc(-c2nn(C(C)C(C)(C)O)c3c2CC[C@@H](C(=O)NC2(C)CCS(=O)(=O)CC2)C3)c(F)cn1 (single isomer, unassigned) [Example 109a]
25 | 30.7 nM | CCOc1cc(-c2nn(C(C)C(C)(C)O)c3c2CC[C@@H](C(=O)NC2(C)CCS(=O)(=O)CC2)C3)c(F)cn1 (single isomer, unassigned) [Example 109b]
26 | 30.8 nM | CC(n1nc(-c2cc(OC(F)F)ccc2F)c2c1C[C@H](C(=O)NC1(C)CS(=O)(=O)C1)CC2)C(C)(C)O (single isomer, unassigned) [Example 110a]
27 | 243 nM | CC(n1nc(-c2cc(OC(F)F)ccc2F)c2c1C[C@H](C(=O)NC1(C)CS(=O)(=O)C1)CC2)C(C)(C)O (single isomer, unassigned) [Example 110b]
28 | 2070 nM | CC(n1nc(-c2cccc(OC(F)F)c2)c2c1C[C@H](C(=O)NC1(C)CCS(=O)(=O)CC1)CC2)C(C)(C)O (single isomer, unassigned) [Example 111a]
29 | 230 nM | CC(n1nc(-c2cccc(OC(F)F)c2)c2c1C[C@H](C(=O)NC1(C)CCS(=O)(=O)CC1)CC2)C(C)(C)O (single isomer, unassigned) [Example 111b]
30 | 11.3 nM | CC(n1nc(-c2cc(OCC(F)(F)F)ncc2F)c2c1C[C@H](C(=O)N[C@@]1(C)CCS(=O)(=O)C1)CC2)C(C)(C)O (single isomer, unassigned) [Example 112a]
31 | 31.6 nM | CC(n1nc(-c2cc(OCC(F)(F)F)ncc2F)c2c1C[C@H](C(=O)N[C@@]1(C)CCS(=O)(=O)C1)CC2)C(C)(C)O (single isomer, unassigned) [Example 112b]
32 | 27.8 nM | CC(n1nc(-c2cc(OCC(F)(F)F)ncc2F)c2c1C[C@H](C(=O)NC1(C#N)CCS(=O)(=O)CC1)CC2)C(C)(C)O (single isomer, unassigned) [Example 113a]
33 | 70.3 nM | CC(n1nc(-c2cc(OCC(F)(F)F)ncc2F)c2c1C[C@H](C(=O)NC1(C#N)CCS(=O)(=O)CC1)CC2)C(C)(C)O (single isomer, unassigned) [Example 113b]
34 | 44.5 nM | CC1(NC(=O)[C@@H]2CCc3c(-c4cc(OC(F)F)ccc4F)nn(C4CCCC4O)c3C2)CS(=O)(=O)C1 (single isomer, unassigned) [Example 114a]
35 | 129 nM | CC1(NC(=O)[C@@H]2CCc3c(-c4cc(OC(F)F)ccc4F)nn(C4CCCC4O)c3C2)CS(=O)(=O)C1 (single isomer, unassigned) [Example 114b]
36 | 99.9 nM | CC1(NC(=O)[C@@H]2CCc3c(-c4cc(OC(F)F)ccc4F)nn(C4CCCC4O)c3C2)CS(=O)(=O)C1 (single isomer, unassigned) [Example 114c]
37 | 105 nM | CC1(NC(=O)[C@@H]2CCc3c(-c4cc(OC(F)F)ccc4F)nn(C4CCCC4O)c3C2)CS(=O)(=O)C1 (single isomer, unassigned) [Example 114d]
38 | > 10000 nM | C[C@]1(NC(=O)[C@@H]2Cc3c(c(-c4cccc(OC(F)F)c4)nn3C3CCOCC3)C(F)(F)C2)CCS(=O)(=O)C1 (single isomer, unassigned) [Example 117a]
39 | 178 nM | C[C@]1(NC(=O)[C@H]2Cc3c(c(-c4cccc(OC(F)F)c4)nn3C3CCOCC3)C(F)(F)C2)CCS(=O)(=O)C1 (single isomer, unassigned) [Example 117b]
